Patent publication US6521268B2, “Antibacterial and anti-inflammatory compositions with Inula helenium L. extract and water soluble chitosan” (Jakwang Co., Ltd., priority 2001, dated 2003)

Tested on: inflammation induced by methyl nicotinate, inner part of the upper arm
Test: Anti-inflammatory effect test (anti-inflammation assay), chromameter "a" value
Type: in vivo, human
Experimental: The anti-inflammatory effect of the natural cell control carrier comprising 3:1 (wt/wt) water-soluble chitosan and elecampane extract according to the present invention was tested as follows. Twenty healthy male and female subjects with no experience of drug hypersensitivity or drug side effect were selected. Methyl nicotinate was used as an inflammation-inducing material. […] Firstly, the initial “a” value of the inner part of the upper arm was determined with a chromameter (Minolta, CR-300). Then, 1.0% aqueous solution of said composition and 0.1% indometacin aqueous solution were closely patched at the test part for 4 hr. After removing the patch, the test part was washed with pure water. After waiting for 1 hr for the temporary inflammation reaction to disappear, “a” value was measured again with the chromameter. After dropping 80 μL of methyl nicotinate diluted to 3 mM with pure water in a filter paper disk with 1 cm of diameter, it was applied to each test part for 1-2 min. After removing the filter paper disk, each test part was washed sufficiently with pure water. After 30 min, “a” value was measured with the chromameter. The anti-inflammatory effect of the natural cell control carrier according to the present invention, indometacin and methyl nicotinate was calculated from the “a” values.

Structure (SMILES): COc1ccc2c(c1)c(CC(=O)O)c(C)n2C(=O)c1ccc(Cl)cc1 [indometacin]
- Anti-Inflammatory Effect (%) (calculated from "a" values, 1.0% carrier or 0.1% indometacin aqueous solution): 41.14%
- "a" Value (n = 20) (chromameter, 30 min after 3 mM methyl nicotinate, 4 hr patch pre-treatment (1.0% carrier or 0.1% indometacin aqueous solution)): 6.38
